Measured values published in publication PMC6979384, “Characterization of the plant homeodomain (PHD) reader family for their histone tail interactions” (Epigenetics & Chromatin, 2020).

Columns and labels:
Test in all cases: Histone peptide microarray
Format in all cases: binding, human
KDM5A (3) = settings: KDM5A (3), GST-tagged; arrays performed twice, n of 4
Procedure, shortened: (§1)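 Using an optimized microarray protocol, purified GST-tagged PHD fingers were incubated at 0.5 μM on 293 histone peptides with single or multiple modifications, and array signal was recorded as the average of 4 replicates.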

DPF2 (PPC2W2) = settings: DPF2 (PPC2W2), GST-tagged; arrays performed twice, n of 4
Procedure, shortened: as §1

KDM4C (TTP) = settings: KDM4C (TTP), GST-tagged; arrays performed twice, n of 4
Procedure, shortened: as §1

PHF23 = settings: PHF23, GST-tagged; arrays performed twice, n of 4
Procedure, shortened: as §1

KDM5B (3) = settings: KDM5B (3), GST-tagged; arrays performed twice, n of 4
Procedure, shortened: as §1

PHF21A = settings: PHF21A, GST-tagged; arrays performed twice, n of 4
Procedure, shortened: as §1

CHD5 (PPCC) = settings: CHD5 (PPCC), GST-tagged; arrays performed twice, n of 4
Procedure, shortened: as §1

TAF3 = settings: TAF3, GST-tagged; arrays performed twice, n of 4
Procedure, shortened: as §1

TRIM66 (PB) = settings: TRIM66 (PB), GST-tagged; arrays performed twice, n of 4
Procedure, shortened: as §1

KDM5B (1) = settings: KDM5B (1), GST-tagged; arrays performed twice, n of 4
Procedure, shortened: as §1

RAG2 = settings: RAG2, GST-tagged; arrays performed twice, n of 4
Procedure, shortened: as §1

ING5 = settings: ING5, GST-tagged; arrays performed twice, n of 4
Procedure, shortened: as §1

PHRF1 (RP) = settings: PHRF1 (RP), GST-tagged; arrays performed twice, n of 4
Procedure, shortened: as §1

ING4 = settings: ING4, GST-tagged; arrays performed twice, n of 4
Procedure, shortened: as §1

PHF8 = settings: PHF8, GST-tagged; arrays performed twice, n of 4
Procedure, shortened: as §1

MLL5 = settings: MLL5, GST-tagged; arrays performed twice, n of 4
Procedure, shortened: as §1

ING2 = settings: ING2, GST-tagged; arrays performed twice, n of 4
Procedure, shortened: as §1

MORC3 (CW) = settings: MORC3 (CW), GST-tagged; arrays performed twice, n of 4
Procedure, shortened: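 Each reader, produced as a GST fusion and purified, was tested at 0.5 μM on synthetic histone peptides (293 in total) carrying single or combinatorial marks. Intensities averaged over four replicates.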

BPTF (PB) = settings: BPTF (PB), GST-tagged; arrays performed twice, n of 4
Procedure, shortened: as §1

SP140L = settings: SP140L, GST-tagged; arrays performed twice, n of 4
Procedure, shortened: as §1

CHD4 (PPCC) = settings: CHD4 (PPCC), GST-tagged; arrays performed twice, n of 4
Procedure, shortened: as §1

AIRE (PP) = settings: AIRE (PP), GST-tagged; arrays performed twice, n of 4
Procedure, shortened: as §1

PHF2 = settings: PHF2, GST-tagged; arrays performed twice, n of 4
Procedure, shortened: as §1

CHD5 (PCC) = settings: CHD5 (PCC), GST-tagged; arrays performed twice, n of 4
Procedure, shortened: as §1

KDM7A = settings: KDM7A, GST-tagged; arrays performed twice, n of 4
Procedure, shortened: as §1

PHF13 = settings: PHF13, GST-tagged; arrays performed twice, n of 4
Procedure, shortened: as §1

KDM5A (1) = settings: KDM5A (1), GST-tagged; arrays performed twice, n of 4
Procedure, shortened: as §1

DIDO1 = settings: DIDO1, GST-tagged; arrays performed twice, n of 4
Procedure, shortened: as §1

BAZ2B = settings: BAZ2B, GST-tagged; arrays performed twice, n of 4
Procedure, shortened: as §1

ING1 = settings: ING1, GST-tagged; arrays performed twice, n of 4
Procedure, shortened: as §1

ING3 = settings: ING3, GST-tagged; arrays performed twice, n of 4
Procedure, shortened: as §1

Row | Substance | Array Heatmap value (peptide array binding signal) (KDM5A (3)) | Array Heatmap value (peptide array binding signal) (DPF2 (PPC2W2)) | Array Heatmap value (peptide array binding signal) (KDM4C (TTP)) | Array Heatmap value (peptide array binding signal) (PHF23) | Array Heatmap value (peptide array binding signal) (KDM5B (3)) | Array Heatmap value (peptide array binding signal) (PHF21A) | Array Heatmap value (peptide array binding signal) (CHD5 (PPCC)) | Array Heatmap value (peptide array binding signal) (TAF3) | Array Heatmap value (peptide array binding signal) (TRIM66 (PB)) | Array Heatmap value (peptide array binding signal) (KDM5B (1)) | Array Heatmap value (peptide array binding signal) (RAG2) | Array Heatmap value (peptide array binding signal) (ING5) | Array Heatmap value (peptide array binding signal) (PHRF1 (RP)) | Array Heatmap value (peptide array binding signal) (ING4) | Array Heatmap value (peptide array binding signal) (PHF8) | Array Heatmap value (peptide array binding signal) (MLL5) | Array Heatmap value (peptide array binding signal) (ING2) | Array Heatmap value (peptide array binding signal) (MORC3 (CW)) | Array Heatmap value (peptide array binding signal) (BPTF (PB)) | Array Heatmap value (peptide array binding signal) (SP140L) | also measured
1 | H4K12me1: H4 1-23 [Peptide H4K12me1] | 0.3966 | 0.6545 | 0.4116 | 0.4708 | 0.384 | 0.4184 | 0.4573 | 0.2302 | 0.515 | 0.6336 | 0.2114 | 0.2899 | 0.3919 | 0.3881 | 0.3037 | 0.4865 | 0.5919 | 0.309 | 0.2963 | 0.3238 | Array Heatmap value (peptide array binding signal) (CHD4 (PPCC)): 0.5189; Array Heatmap value (peptide array binding signal) (AIRE (PP)): 0.4018; Array Heatmap value (peptide array binding signal) (PHF2): 0.4095; Array Heatmap value (peptide array binding signal) (CHD5 (PCC)): 0.7543; Array Heatmap value (peptide array binding signal) (KDM7A): 0.3046; Array Heatmap value (peptide array binding signal) (PHF13): 0.5207; Array Heatmap value (peptide array binding signal) (KDM5A (1)): 0.4194; Array Heatmap value (peptide array binding signal) (DIDO1): 0.5928; Array Heatmap value (peptide array binding signal) (BAZ2B): 0.3991; Array Heatmap value (peptide array binding signal) (ING1): 0.4711; Array Heatmap value (peptide array binding signal) (ING3): 0.3932
2 | H4K20ac: H4 1-23 [Peptide H4K20ac] | 0.374 | 0.5691 | 0.4301 | 0.4966 | 0.5071 | 0.3977 | 0.4774 | 0.2578 | 0.5321 | 0.6134 | 0.2177 | 0.3047 | 0.3806 | 0.4009 | 0.3218 | 0.5228 | 0.5829 | 0.3311 | 0.3137 | 0.3288 | Array Heatmap value (peptide array binding signal) (CHD4 (PPCC)): 0.5173; Array Heatmap value (peptide array binding signal) (AIRE (PP)): 0.423; Array Heatmap value (peptide array binding signal) (PHF2): 0.4522; Array Heatmap value (peptide array binding signal) (CHD5 (PCC)): 0.7369; Array Heatmap value (peptide array binding signal) (KDM7A): 0.3276; Array Heatmap value (peptide array binding signal) (PHF13): 0.5544; Array Heatmap value (peptide array binding signal) (KDM5A (1)): 0.4202; Array Heatmap value (peptide array binding signal) (DIDO1): 0.5747; Array Heatmap value (peptide array binding signal) (BAZ2B): 0.4009; Array Heatmap value (peptide array binding signal) (ING1): 0.4651; Array Heatmap value (peptide array binding signal) (ING3): 0.4032
